According to US20050054673A1, “Combination of phenylcarboxylic acid amides with beta-adrenoreceptor blockers and their use for the treatment of atrial arrhythmias” (Aventis Pharma Deutschland GmbH, priority 2003, published 2005):
Marks after values point to notes of the source that are not given here.

Tested on: left atrium of the pig
Assay: Refractory period in anaesthetized pigs (AERP, left atrium)
Assay type: in vivo
Conditions: for Effect on the refractory period (in words): single substances, Example 1 or 5 after 1 h infusion of 3 mg/kg/h; for Increase after Example 1 in ms: infusion 3 mg/kg/h, vs. control
Method: Investigation of the refractory period in anaesthetized pigs
The investigations were carried out in the anaesthetised pig as described by Knobloch et al. (Knobloch K., Brendel J., Peukert S., Rosenstein B., Busch A.-E., Wirth K.-J., “Electrophysiological and antiarrhythmic effects of the novel IKUR channel blockers, S9947 and S20951, on the left vs. right pig atrium in vivo in comparison with the IKr blockers dofetilide, azimilide, d, I-sotalol and ibutilide”, Naunyn-Schmiedeberg's Arch Pharmacol 2002, 366: 482-487). The action of beta-blockers and IKUR blockers on the refractory period of the left atrium was investigated. First, the action of the individual substances was tested, then the action of the combination of both individual substances.
Male pigs of native German breed of age 2-3 months and weight 23-30 kg were used.
The pigs were premedicated with 3 mL of Rompun® 2% ([…] 23.3 mg/mL=3 mg/kg; injected intramuscularly) and 6 mL of Hostaket® (ketamine 115 mg/mL=20 mg/kg; injected intramuscularly). Anesthesia was induced using an intravenous bolus injection of 5 mL of Narcoren® (pentobarbital 160 mg/mL=25-30 mg/kg; i.v.) and continuously supplied intravenously by means of a pentobarbital perfusor at 12-17 mg/kg/h. After tracheotomy and intubation, the animals were ventilated with oxygen by means of a respirator. A left-lateral thoracotomy was carried out in the fifth intercostal space. The lungs were retracted using sutures, the pericardium was opened and held using sutures so that the heart rocked in this. The tip of a MAP Pacing™ electrophysiology catheter (EP Technologies, Model 1675, Boston Scientific Corporation, 92257 La Garenne-Colombes Cedex, France) were then placed on the free wall of the left atrium in a right-angled position and fixed to the left atrium under constant pressure in a stand. The electrical stimulation was carried out using an external heart stimulator from Biotronik (UHS 20, Universal heart stimulator, Biotronik GmbH, 12359 Berlin, Germany).
Measurement of the atrial effective refractory period (AERP): The electrical atrial response to the external pacemaker stimulation was visualized by means of a mono phasic action potential (MAP), which was derived from the left atrium by means of the electrophysiology catheter. A conditioning stimulation cycle of 10 base intervals (S1) in a double stimulation amplitude followed a diastolic, prematurely coupled extrastimulus (S2, 1 ms pulse duration, 200 ms refractory period), which originated during a 5 ms decrement of a coupling interval, which was 30 ms above the expected effective refractory period (AERP). The 5 mS decrement in the coupling interval of the extrastimulus ran until the atrium no longer produced any response in the form of an action potential. The longest coupling interval which was no longer able to induce any atrial action potential was used as the effective refractory period. The refractory period was in each case investigated at three basal cycle length, 240, 300 and 400 ms).
Experimental groups: The sole action of atenolol (bolus administration of 1 mg/kg) on the refractory period was investigated in a separate group of pigs (n=5).

[1] = basal cycle length 240 ms, atenolol 1 mg/kg bolus i.v., n = 5
[2] = basal cycle length 300 ms, atenolol 1 mg/kg bolus i.v., n = 5
[3] = basal cycle length 400 ms, atenolol 1 mg/kg bolus i.v., n = 5

CCCCS(=O)(=O)Nc1ccccc1C(=O)N[C@H](CC)c1ccc(OC)nc1 [Example 5, 2-(Butyl-1-sulfonylamino)-N-[1(R)-(6-methoxypyridin-3-yl)-propyl]benzamide]
Effect on the refractory period (in words): increased to a stable level

COc1ccc(CC(=O)NCc2ccccc2-c2ccccc2C(=O)NCCc2cccnc2)cc1 [Example 1, 2′-{[2-(4-Methoxyphenyl)acetylamino]methyl}biphenyl-2-carboxylic acid (2-pyridin-3-ylethyl)amide]
Refractory period, mean value (basal cycle length 240 ms, Example 1 infused 3 mg/kg/h, after 1 h atenolol 1 mg/kg bolus, n = 6): 136 milliseconds | Increase after Example 1 in ms (basal cycle length 240 ms, n = 6): 35^# ms | Refractory period, mean value (basal cycle length 300 ms, Example 1 infused 3 mg/kg/h, after 1 h atenolol 1 mg/kg bolus, n = 6): 149.5 milliseconds | Increase after Example 1 in ms (basal cycle length 300 ms, n = 6): 40.7^# ms | Refractory period, mean value (basal cycle length 400 ms, Example 1 infused 3 mg/kg/h, after 1 h atenolol 1 mg/kg bolus, n = 6): 166.2 milliseconds | Increase after Example 1 in ms (basal cycle length 400 ms, n = 6): 52.3^# ms | Effect on the refractory period (in words): increased to a stable level

CC(C)NCC(O)COc1ccc(CC(N)=O)cc1 (centres unmarked) [Atenolol, atenolol, reference compound]
Increase in ms of refractory period vs. control [1]: 25* ms | Refractory period, mean value [1]: 136 milliseconds | Increase in ms of refractory period vs. control [2]: 21* ms | Refractory period, mean value [2]: 129 milliseconds | Increase in ms of refractory period vs. control [3]: 11* ms | Refractory period, mean value [3]: 129 milliseconds
